Structures can show the parent of a compound that is named as a salt.
The molecules below were run against factor Xa (Homo sapiens, UniProt P00742) (assay: In vitro Factor Xa assay (Test 1a), chromogenic substrate S-2765). Settings: Factor Xa inhibitory activity; Ki from IC50 corrected for substrate competition; 0.5 nM enzyme, 140 μM S-2765, 25° C.
Sequence of factor Xa (P00742 235-488 limits assumed): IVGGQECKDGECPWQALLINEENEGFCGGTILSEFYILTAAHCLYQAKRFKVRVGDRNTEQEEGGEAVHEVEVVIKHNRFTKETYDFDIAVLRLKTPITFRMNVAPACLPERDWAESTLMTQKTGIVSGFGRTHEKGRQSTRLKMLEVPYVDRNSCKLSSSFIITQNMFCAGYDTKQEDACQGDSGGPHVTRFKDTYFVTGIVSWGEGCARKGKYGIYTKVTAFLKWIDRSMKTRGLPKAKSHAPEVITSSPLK
Sequence of factor Xa (P00742 41-179 partner limits assumed): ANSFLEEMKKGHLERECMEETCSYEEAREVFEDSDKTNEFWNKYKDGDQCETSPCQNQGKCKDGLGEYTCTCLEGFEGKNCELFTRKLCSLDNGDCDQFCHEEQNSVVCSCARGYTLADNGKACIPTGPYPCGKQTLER
Assay type: biochemical
Set-up: purchased Enzyme Research Laboratories, Inc; South Bend, Ind
Description: The ability of a compound of formula I to inhibit factor Xa, thrombin, plasmin, elastase and trypsin may be assessed by determining the concentration of compound of formula I that inhibits enzyme activity by 50% (IC50). Purified enzymes are used in chromogenic assays. To determine the inhibition constant, the IC50 value is corrected for competition with substrate using the formula:
Ki=IC50×(1/{1+((substrate concentration)/substrate Km)})
where Km is the Michaelis-Menten-constant (Y.-C. Chen and W.H. Prusoff, Biochem. Pharmacol. 22: […] (1973), which is incorporated herein by reference).
TBS-PEG buffer (50 mM Tris-Cl, pH 7.8, 200 mM NaCl, 0.05% (w/v) PEG-8000, 0.02% (w/v) NaN3) is used for this assay. The IC50 is determined by combining in appropriate wells of a Costar half-area microtiter plate 25 μl human factor Xa (Enzyme Research Laboratories, Inc.; South Bend, Ind.) in TBS-PEG; 40 μl 10% (v/v) DMSO in TBS-PEG (uninhibited control) or various concentrations of the compound to be tested diluted in 10% (v/v) DMSO in TBS-PEG; and substrate S-2765 (N-benzyloxycarbonyl-D-Arg-Gly-L-Arg-p-nitroanilide; Kabi Pharmacia, Inc.; Franklin Ohio) in TBS-PEG.
The assays are performed by pre-incubating the compound of formula I plus enzyme for 10 min, then the assay is initiated by adding substrate to obtain a final volume of 100 μl. The initial velocity of chromogenic substrate hydrolysis is measured by the change in absorbance at 405 nm using a Bio-tek Instruments kinetic plate reader (Ceres UV900HDi) at 25° C. during the linear portion of the time course (usually 1.5 min after addition of substrate). The concentration of inhibitor that causes a 50% decrease in the rate of substrate hydrolysis is predicted by linear regression after plotting the relative rates of hydrolysis (compared to the uninhibited control) versus the log of the compound of formula I concentration. The enzyme concentration is 0.5 nM and substrate concentration is 140 μM.
With `CN(C)C(=O)C(Cc1ccc(C(=N)N)cc1)C(=O)N[C@H](C(=O)NCc1ccc(C(=N)N)cc1)C1CCCCC1` (mixture of isomers) [Example 4, 2-(R,S)-(4-Carbamimidoyl-benzyl)-N-[(4-carbamimidoyl-benzylcarbamoyl)-(S)-cyclohexyl-methyl]-N′,N′-dimethyl-malonamide Hydrochloric Acid Salt] the Ki was 6 nM.
For `N=C(N)NCCC[C@H](NC(=O)[C@@H](NC(=O)C(Cc1ccc(C(=N)N)cc1)C(=O)N1CCOCC1)c1ccccc1)C(N)=O` (mixture of isomers) [Example 23, 2-(S)-{2-(S)-[2-(R,S)-(4-Carbamimidoyl-benzyl)-3-morpholin-4-yl-3-oxo-propionyl-amino]-2-phenyl-acetylamino}-5-guanidino-pentanoic acid amide trifluoroacetic acid salt], the Ki was 13 nM.
With `CC(C)(C)[C@H](NC(=O)C(Cc1ccc(C(=N)N)cc1)C(=O)N1CCOCC1)C(=O)N[C@@H](CCCNC(=N)N)C(N)=O` (mixture of isomers) [Example 40, 2-(S)-{2-(S)-[2-(R,S)-(4-Carbamimidoyl-benzyl)-3-morpholin-4-yl-3-oxo-propionyl-amino]-3,3-dimethyl-butyrylamino}-5-guanidino-pentanoic acid amide trifluoroacetic acid salt] the Ki was 500 nM.
In the case of `N=C(N)NCCC[C@H](NC(=O)[C@@H](NC(=O)C(Cc1ccc(C(=N)N)cc1)C(=O)N1CCOCC1)C1CCCCC1)C(N)=O` (mixture of isomers) [Example 41, 2-(S)-{2-(S)-[2-(R,S)-(4-Carbamimidoyl-benzyl)-3-morpholin-4-yl-3-oxo-propionyl-amino]-2-cyclohexyl-acetylamino}-5-guanidino-pentanoic acid amide trifluoroacetic acid salt], the Ki is reported as 6.2 nM.
`N=C(N)NCCC[C@H](NC(=O)[C@H](Cc1ccccc1)NC(=O)C(Cc1ccc(C(=N)N)cc1)C(=O)N1CCOCC1)C(N)=O` (mixture of isomers) [Example 43, 2-(S)-{2-(S)-[2-(R,S)-(4-Carbamimidoyl-benzyl)-3-morpholin-4-yl-3-oxo-propionyl-amino]-3-phenyl-propionylamino}-5-guanidino-pentanoic acid amide trisfluoroacetic acid salt] gave a Ki of 190 nM.
`CN(C)C(=O)C(Cc1ccc(C(=N)N)cc1)C(=O)N[C@H](C(=O)N[C@@H](CCCNC(=N)N)C(=O)N1CCN(S(=O)(=O)c2ccc3ccc(Cl)cc3c2)CC1)C1CCCCC1` (mixture of isomers) [Example 45, 2-(R,S)-(4-Carbamimidoyl-benzyl)-N-({1-(S)-[4-(7-chloro-naphthalene-2-sulfonyl)-piperazine-1-carbonyl]-4-guanidino-butylcarbamoyl}-(S)-cyclohexyl-methyl)-N′,N′dimethyl-malonamide hydrochloric acid salt] was tested, and the Ki was 12 nM.
Work on `CN(C)C(=O)C(Cc1ccc(C(=N)N)cc1)C(=O)N[C@H](C(=O)NCC1CCNCC1)C1CCCCC1` (mixture of isomers) [Example 47, 2-(R,S)-(4-Carbamimidoyl-benzyl)-N-{(S)-cyclohexyl-[(piperidin-4-ylmethyl)-carbamoyl]-methyl}-N′,N′-dimethyl-malonamide hydrochloric acid salt] yielded a Ki of 460 nM.
Work on `CN(C)C(=O)C(Cc1ccc(C(=N)N)cc1)C(=O)N[C@H](C(=O)NCCc1ccc(Cl)c(Cl)c1)C1CCCCC1` (mixture of isomers) [Example 59, 2-(R,S)-(4-Carbamimidoyl-benzyl)-N-{(S)-cyclohexyl-[2-(3,4-dichloro-phenyl)-ethylcarbamoyl]-methyl}-N′,N′-dimethyl-malonamide acetic acid salt] yielded a Ki of 5230 nM.
`CN(C)C(=O)C(Cc1ccc(C(=N)N)cc1)C(=O)N[C@H](C(=O)NC(Cc1ccc(C(=N)N)cc1)C(N)=O)C1CCCCC1` (mixture of isomers) [Example 87, 2-(R,S)-(4-Carbamimidoyl-benzyl)-N-{(S)-[2-(4-carbamimidoyl-phenyl)-1-carbamoyl-ethylcarbamoyl]-cyclohexyl-methyl}N′,N′-dimethyl-malonamide acetic acid salt] gave a Ki of 170 nM.
For `CN(C)C(=O)C(Cc1ccc(C(=N)N)cc1)C(=O)N[C@H](C(=O)NCCCCNC(=N)N)C1CCCCC1` (mixture of isomers) [Example 88, 2-(R,S)-(4-Carbamimidoyl-benzyl)-N-[(S)-cyclohexyl-(4-guanidino-butyl-carbamoyl)-methyl]-N′,N′-dimethyl-malonamide sulfuric acid salt], the Ki was 54 nM.
For `CN(C)C(=O)C(Cc1ccc(C(=N)N)cc1)C(=O)N[C@H](C(=O)NC(C(=O)N1CCCC1)c1ccc(NC(=N)N)cc1)C1CCCCC1` (mixture of isomers) [Example 96, 2-(R,S)-(4-Carbamimidoyl-benzyl)-N-{(S)-cyclohexyl-[1-(4-guanidino-phenyl)-2-oxo-2-pyrrolidin-1-yl-ethylcarbamoyl]-methyl}-N′,N′-dimethyl-malonamide hydrochloric acid salt], the Ki was 960 nM.
`N=C(N)NCCCC(NC(=O)C(NC(=O)C(Cc1ccc(C(=N)N)cc1)C(=O)N1CCCCC1)C1CCCCC1)C(N)=O` (single isomer, unassigned; less polar) [Example 27] showed a Ki of 3.5 nM.
`N=C(N)NCCC[C@H](NC(=O)[C@@H](NC(=O)C(Cc1ccc(C(=N)N)cc1)C(=O)N1CCCC1C(=O)O)C1CCCCC1)C(N)=O` (single isomer, unassigned; less polar) [Example 35] gave a Ki of 84 nM.
Molecule `N=C(N)c1ccc(CNC(=O)[C@@H](NC(=O)C(Cc2ccc(C(=N)N)cc2)C(=O)NCc2ccccc2)C2CCCCC2)cc1` (single isomer, unassigned; less polar) [Example 101] has a Ki of 37 nM.
`CN(Cc1ccccc1)C(=O)[C@@H](Cc1ccc(C(=N)N)cc1)C(=O)N[C@H](C(=O)NCC1CCN(C(=N)N)CC1)C1CCCCC1` (single isomer, unassigned; less polar) [Example 112] gave a Ki of 1 nM.
For `CCC(=N)N1CCC(CNC(=O)C(NC(=O)C(Cc2ccc(C(=N)N)cc2)C(=O)N(C)Cc2ccccc2)C2CCCCC2)CC1` (single isomer, unassigned; less polar) [Example 126], the Ki was 35 nM.
For `N=C(N)NCCCC(NC(=O)C(NC(=O)C(Cc1ccc(C(=N)N)cc1)C(=O)N1CCCCC1)C1CCCCC1)C(N)=O` (single isomer, unassigned; more polar) [Example 28], the Ki was 2000 nM.
In the case of `CCOC(=O)C(Cc1cccc2ccccc12)NC(=O)[C@@H](NC(=O)C(Cc1ccc(C(=N)N)cc1)C(=O)N(C)Cc1ccccc1)C1CCCCC1` (single isomer, unassigned; more polar) [Example 107], the Ki is reported as 2760 nM.
Work on `CCC(=N)N1CCC(CNC(=O)C(NC(=O)C(Cc2ccc(C(=N)N)cc2)C(=O)N(C)Cc2ccccc2)C2CCCCC2)CC1` (single isomer, unassigned; more polar) [Example 125] yielded a Ki of 6 nM.
In the case of `CCCC[C@H](NC(=O)C(Cc1ccc(C(=N)N)cc1)C(=O)N1CCOCC1)C(=O)N[C@@H](CCCNC(=N)N)C(N)=O` (stereo partly drawn) [Example 16, 2-(S)-[2-(R,S)-(4-Carbamimidoyl-benzyl)-3-morpholin-4-yl-3-oxo-propionyl-amino]-hexanoic acid(1-(S)-carbamoyl-4-guanidino-butyl)-amide trifluoroacetic acid salt], the Ki is reported as 26 nM.
`CN(C)C(=O)C(Cc1ccc(C(=N)N)cc1)C(=O)N[C@H](C(=O)NCc1cccc(CN)c1)C1CCCCC1` (stereo partly drawn) [Example 63, N-[((S)-3-Aminomethyl-benzylcarbamoyl)-cyclohexyl-methyl]-2-(R,S)-(4-carbamimidoyl-benzyl)-N′,N′-dimethyl-malonamide trifluoroacetic acid salt] gave a Ki of 2360 nM.
`CC(=O)NCc1cccc(CNC(=O)[C@@H](NC(=O)C(Cc2ccc(C(=N)N)cc2)C(=O)N(C)C)C2CCCCC2)c1` (stereo partly drawn) [Example 67, N-{[(S)-3-(Acetylamino-methyl)-benzylcarbamoyl]-cyclohexyl-methyl}-2-(R,S)-(4-carbamimidoyl-benzyl)-N′,N′-dimethyl-malonamide trifluoroacetic acid salt] was tested, and the Ki was 260 nM.
Molecule `CN(C)C(=O)C(Cc1ccc(C(=N)N)cc1)C(=O)NC(C(=O)NCc1cccc(C(N)=O)c1)C1CCCCC1` [Example 69, 2-(R,S)-(4-Carbamimidoyl-benzyl)-N-[((S)-3-carbamoyl-benzylcarbamoyl)-cyclohexyl-methyl]-N′,N′-dimethyl-malonamide hydrochloric acid salt] has a Ki of 780 nM.
Molecule `CN(C)C(=O)[C@@H](Cc1ccc(C(=N)N)cc1)C(=O)N[C@H](C(=O)NCC1CCN(C(=N)N)CC1)C1CCCCC1` [Example 113, 2-(S)-(4-Carbamimidoyl-benzyl)-N-{(S)-[(1-carbamimidoyl-piperidin-4-ylmethyl)-carbamoyl]-cyclohexyl-methyl}-N′,N′-dimethyl-malonamide hydrochloric acid salt, less polar diastereomer] has a Ki of 3 nM.

Source: patent US6395737B1, “Malonic acid derivatives, processes for their preparation, for their use and pharmaceutical compositions containing them” (Aventis Pharma Deutschland GmbH, priority 1999, dated 2002)
